Data on one molecule can be found in ChEMBL document CHEMBL5137082, “Discovery of a Novel Vascular Disrupting Agent Inhibiting Tubulin Polymerization and HDACs with Potent Antitumor Effects” (J Med Chem, 2022).

Data set [1] deals with HepG2. Description: Induction of cell cycle arrest in human HepG2 cells assessed as accumulation G2 phase at 30 nM incubated for 48 hrs by propidium iodide staining based flow cytometry analysis (reference value: 23.55 +/- 0.29%). It counts as functional.
For data set [2], the system named is HepG2. In words: Induction of apoptosis in human HepG2 cells assessed as late apoptotic cells at 15 nM incubated for 48 hrs by Annexin-V/PI-staining based flow cytometry (reference value: 2.53 +/- 0.34%). It counts as functional. Background: Flow cytometry measures light scatter and fluorescence of single cells or particles in a stream.
Data set [3] in a line: Toxicity in ICR mouse allografted with mouse H22 cells assessed as pathological changes in spleen at 20 mg/kg, iv administered qd measured after 21 days by H and E staining based analysis. It counts as organism-based. The note with it: in vivo, 504 h, time 21 day.
In a further data set the test system is MCF7. Description: Antiproliferative activity against human MCF7 cells assessed as inhibition of cell growth measured after 72 hrs by MTT assay. Type of data set: functional, cell-based. The note with it: MCF7, 72 h. (In general: Tetrazolium assays rely on reduction of a dye to a coloured formazan, in cell work by metabolically active cells.)
In data set [4] the test system is H22. In words: Antiproliferative activity against mouse H22 cells assessed as inhibition of cell growth measured after 72 hrs by MTT assay. Type of data set: functional, cell-based. The note with it: H22, 72 h.
Data set [5] in a line: Metabolic stability in mouse liver microsomes assessed as metabolic bioavailability at 1 uM in presence of NADPH measured up to 60 mins by LC-MS/MS analysis. Type of data set: ADME, Microsome. For orientation: Microsomes from liver hold many membrane-bound enzymes, among them those of drug oxidation.
Data set [6] deals with PC-3. In words: Induction of apoptosis in human PC-3 cells assessed as mitochondrial membrane potential loss by measuring decrease in red fluorescence at 15 nM incubated for 48 hrs by JC1 staining based flow cytometry analysis (reference value: 93.48 +/- 0.15%). Type of data set: functional. On the set-up: scale not given: the % may be the effect or the level left.
A further data set addresses Tubulin. In words: Inhibition of tubulin polymerization (unknown origin) preincubated for 15 mins followed by PEG and GTP addition measured after 30 mins by spectrophotometric method. Type of data set: protein-complex assay, Homo sapiens.
Data set [7] relates to H22. Description: Antivascular activity against mouse H22 cells allografted in ICR mouse assessed as inhibition of blood vessel formation at 20 mg/kg, iv administered qd measured after 21 days by immunohistochemistry analysis. As to conditions: time 21.0 day. Type of data set: functional, organism-based.
Data set [8] relates to HepG2. Description: Induction of cell cycle arrest in human HepG2 cells assessed as accumulation G1 phase at 15 nM incubated for 48 hrs by propidium iodide staining based flow cytometry analysis (reference value: 59.32 +/- 0.77%). Type of data set: functional.
Data set [9] concerns the target T1, Protein deacetylase HDAC6 (Homo sapiens, UniProt Q9UBN7).
T1 sequence (Q9UBN7 whole entry): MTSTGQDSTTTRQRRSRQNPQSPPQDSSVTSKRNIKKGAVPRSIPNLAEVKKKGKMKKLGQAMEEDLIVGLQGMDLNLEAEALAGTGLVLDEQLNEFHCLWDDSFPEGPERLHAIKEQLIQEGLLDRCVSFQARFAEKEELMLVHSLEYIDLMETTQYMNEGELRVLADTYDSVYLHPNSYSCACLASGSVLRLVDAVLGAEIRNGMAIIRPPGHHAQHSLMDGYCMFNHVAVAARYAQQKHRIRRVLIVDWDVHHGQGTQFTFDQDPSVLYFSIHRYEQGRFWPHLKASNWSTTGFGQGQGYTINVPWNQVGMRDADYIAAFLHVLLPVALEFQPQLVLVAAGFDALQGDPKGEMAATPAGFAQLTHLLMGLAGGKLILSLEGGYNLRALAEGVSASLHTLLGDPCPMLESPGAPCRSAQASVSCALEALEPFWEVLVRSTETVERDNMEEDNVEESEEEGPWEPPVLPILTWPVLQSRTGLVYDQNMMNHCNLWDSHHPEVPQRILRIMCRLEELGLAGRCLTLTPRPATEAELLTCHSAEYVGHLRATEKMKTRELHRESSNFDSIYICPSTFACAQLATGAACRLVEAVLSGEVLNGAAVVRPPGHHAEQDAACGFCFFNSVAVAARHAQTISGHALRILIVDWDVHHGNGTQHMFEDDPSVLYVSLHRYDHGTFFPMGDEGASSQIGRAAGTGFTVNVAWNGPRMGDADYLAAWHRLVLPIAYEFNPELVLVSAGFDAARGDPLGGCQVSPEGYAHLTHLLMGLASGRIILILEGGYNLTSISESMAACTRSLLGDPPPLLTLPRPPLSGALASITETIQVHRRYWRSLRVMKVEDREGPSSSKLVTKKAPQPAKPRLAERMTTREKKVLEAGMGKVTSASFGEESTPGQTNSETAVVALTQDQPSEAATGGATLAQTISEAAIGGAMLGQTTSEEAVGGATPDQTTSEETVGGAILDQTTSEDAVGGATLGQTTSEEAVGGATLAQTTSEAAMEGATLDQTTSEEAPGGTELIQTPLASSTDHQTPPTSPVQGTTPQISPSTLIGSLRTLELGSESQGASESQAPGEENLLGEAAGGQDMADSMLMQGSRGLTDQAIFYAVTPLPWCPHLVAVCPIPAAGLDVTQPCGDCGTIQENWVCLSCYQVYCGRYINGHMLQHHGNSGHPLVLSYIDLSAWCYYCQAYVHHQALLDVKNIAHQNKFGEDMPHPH
In words: Inhibition of HDAC6 in human HeLa cells using BOC-K(Ac)-AMC as substrate measured after 30 mins by fluorescence based microtiter plate reader assay. Type of data set: cell-based.

The nature of data set [10]: Antiproliferative activity against human HFL1 cells assessed as inhibition of cell growth measured after 72 hrs by MTT assay. It counts as toxicity, cell-based.
The subject of data set [11] is PC-3. Description: Induction of apoptosis in human PC-3 cells assessed as mitochondrial membrane potential loss by measuring decrease in red fluorescence at 30 nM incubated for 48 hrs by JC1 staining based flow cytometry analysis (reference value: 93.48 +/- 0.15%). Type of data set: functional. Set-up: scale not given: the % may be the effect or the level left.
In data set [12] the test system is HepG2. In words: Induction of apoptosis in human HepG2 cells assessed as early apoptotic cells at 30 nM incubated for 48 hrs by Annexin-V/PI-staining based flow cytometry (reference value: 4.61 +/- 0.46%). It counts as functional.
Data set [13] is described as follows: Metabolic stability in mouse liver microsomes assessed as half life at 1 uM in presence of NADPH measured up to 60 mins by LC-MS/MS analysis. Type of data set: ADME, Microsome.
The test system of data set [14] is HepG2. In words: Induction of G2/M phase cell cycle arrest in human HepG2 cells assessed as decrease in Cdc25c protein expression at 7.5 to 30 nM measured after 24 hrs by western blot analysis. As to conditions: dose 7.5-30 nM. It counts as functional, cell-based.
A short description of data set [15]: Metabolic stability in mouse plasma assessed as compound remaining at 40 uM measured after 5 hrs by LC-MS/MS analysis (reference value: 100%). It counts as ADME, cell-free.
A short description of data set [16]: Toxicity in ICR mouse allografted with mouse H22 cells assessed as diastolic blood pressure at 20 mg/kg, iv administered qd measured after 21 days. It counts as organism-based. As to conditions: in vivo, 504 h, time 21 day.
For data set [17], the system named is HepG2. In words: Induction of apoptosis in human HepG2 cells assessed as upregulation of Bax protein expression measured after 24 hrs by Western blot analysis. It counts as functional, cell-based. The note with it: dose 7.5-30 nM, DDE = dose-dependent effect.
The subject of data set [18] is HepG2. Description: Induction of cell cycle arrest in human HepG2 cells assessed as accumulation S phase at 7.5 nM incubated for 48 hrs by propidium iodide staining based flow cytometry analysis (reference value: 17.14 +/- 0.34%). It counts as functional.
In data set [19] the test system is HepG2. In words: Induction of apoptosis in human HepG2 cells assessed as necrotic cells at 30 nM incubated for 48 hrs by Annexin-V/PI-staining based flow cytometry (reference value: 1.43 +/- 0.26%). It counts as functional.
The next data set concerns HUVEC. Description: Antimigratory activity against HUVEC cells assessed as suppression of migration measured after 24 hrs by Wound healing assay. It counts as functional, cell-based. As to conditions: Homo sapiens, dose 7.5-30 nM, DDE = dose-dependent effect.

The source made the active and inactive calls.

Usually IC50 stands for the concentration that inhibits the measured activity by half. A word on the half-life: it is the time needed for the level to fall by half in the phase considered. Regarding `COc1ccc(CNC(=O)c2cc(F)ccc2N2CCOCC2)cc1/C=C/C(=O)NO`, the Activity in the data set with HepG2 [1] is reported as 33.09%; in the data set with HepG2 [2] it was 6.36%; in data set [3], “Non-Toxic”; in the data set with PC-3 [6], 61.56%; in the data set with HepG2 [8], 49.96%; with PC-3 [11], 49.39%. Further, the Activity in the data set on HepG2 [12] was 34.86%; in data set [16] it was “Non-Toxic”; with HepG2 [17] it was “Dde”; with HepG2 [18], 20.81%; with HepG2 [19], 2.85%; in the data set with HUVEC, “Dde”. The half-maximal inhibitory concentration (IC50) in the data set with MCF7 is 27 nM; in the data set on H22 [4] it was 26 nM; at Tubulin, 4060 nM; in data set [9], 138 nM. The Fh at 1 h, 1 µM in data set [5] stood at 51.6%. The outcome with H22 [7] and with HepG2 [14] was Active. The IC50 at 72 h in data set [10] amounted to 13 nM. The half-life at 1 µM in [13] turned out to be 50.3 min. The Stability in data set [15] was 16%.
